Measurements: ChEMBL document CHEMBL1148818, “1,2,4-triazol-3-yl-thiopropyl-tetrahydrobenzazepines: a series of potent and selective dopamine D(3) receptor antagonists” (J Med Chem, 2007)

Columns and labels:
[1] = in vivo; conditions: Sprague-Dawley, rat, whole blood
[2] = in vivo; conditions: Sprague-Dawley, rat
[3] = in vivo; conditions: Sprague-Dawley, rat; remark: listed apart in the source
[4] = in vitro; conditions: human, liver microsomes

Row | SMILES | clearance [1] | Vd [2] | bioavailability [3] | CLint scaled [4]
1 | Cc1ccc2c(-c3nnc(SCCCN4CCc5ccc(-c6cc(C)on6)cc5CC4)n3C)cccc2n1 | 38 mL/min/kg | 3.4 L/kg | 24% | 
2 | Cc1ccc2c(-c3nnc(SCCCN4CCc5ccc(-c6ncc(C)o6)cc5CC4)n3C)cccc2n1 | 59 mL/min/kg | 7.9 L/kg | 27% | 4.7 mL/min/g
3 | Cc1cnc(-c2ccc3c(c2)CCN(CCCSc2nnc(-c4cccn4C)n2C)CC3)o1 |  |  |  | 6.4 mL/min/g
